# Reference: ChEMBL document CHEMBL1143254, “Structure-based design of novel 2-amino-6-phenyl-pyrimido[5',4':5,6]pyrimido[1,2-a]benzimidazol-5(6H)-ones as potent and orally active inhibitors of lymphocyte specific kinase (Lck): synthesis, SAR, and in vivo anti-inflammatory activity” (J Med Chem, 2008)
# Columns and labels:
# [1] = target: Proto-oncogene tyrosine-protein kinase Src (Homo sapiens, UniProt P12931); test: Inhibition of Src by HTRF assay
# [2] = target: Mitogen-activated protein kinase 14 (Homo sapiens, UniProt Q16539); test: Inhibition of p38-alpha by HTRF assay
# Mitogen-activated protein kinase 14, sequence (Q16539 whole entry): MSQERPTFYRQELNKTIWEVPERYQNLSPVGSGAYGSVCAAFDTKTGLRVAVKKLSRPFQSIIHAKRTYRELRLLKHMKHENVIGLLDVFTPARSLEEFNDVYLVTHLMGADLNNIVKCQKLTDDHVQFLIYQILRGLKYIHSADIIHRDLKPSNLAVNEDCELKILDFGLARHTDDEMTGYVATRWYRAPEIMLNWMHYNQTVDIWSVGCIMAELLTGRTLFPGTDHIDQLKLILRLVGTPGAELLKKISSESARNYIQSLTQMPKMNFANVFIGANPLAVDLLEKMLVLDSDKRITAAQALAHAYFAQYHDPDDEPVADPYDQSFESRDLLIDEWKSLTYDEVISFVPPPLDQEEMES
# [3] = target: Vascular endothelial growth factor receptor 2 (Homo sapiens, UniProt P35968); test: Inhibition of KDR by HTRF assay
# Vascular endothelial growth factor receptor 2, sequence (P35968 whole entry): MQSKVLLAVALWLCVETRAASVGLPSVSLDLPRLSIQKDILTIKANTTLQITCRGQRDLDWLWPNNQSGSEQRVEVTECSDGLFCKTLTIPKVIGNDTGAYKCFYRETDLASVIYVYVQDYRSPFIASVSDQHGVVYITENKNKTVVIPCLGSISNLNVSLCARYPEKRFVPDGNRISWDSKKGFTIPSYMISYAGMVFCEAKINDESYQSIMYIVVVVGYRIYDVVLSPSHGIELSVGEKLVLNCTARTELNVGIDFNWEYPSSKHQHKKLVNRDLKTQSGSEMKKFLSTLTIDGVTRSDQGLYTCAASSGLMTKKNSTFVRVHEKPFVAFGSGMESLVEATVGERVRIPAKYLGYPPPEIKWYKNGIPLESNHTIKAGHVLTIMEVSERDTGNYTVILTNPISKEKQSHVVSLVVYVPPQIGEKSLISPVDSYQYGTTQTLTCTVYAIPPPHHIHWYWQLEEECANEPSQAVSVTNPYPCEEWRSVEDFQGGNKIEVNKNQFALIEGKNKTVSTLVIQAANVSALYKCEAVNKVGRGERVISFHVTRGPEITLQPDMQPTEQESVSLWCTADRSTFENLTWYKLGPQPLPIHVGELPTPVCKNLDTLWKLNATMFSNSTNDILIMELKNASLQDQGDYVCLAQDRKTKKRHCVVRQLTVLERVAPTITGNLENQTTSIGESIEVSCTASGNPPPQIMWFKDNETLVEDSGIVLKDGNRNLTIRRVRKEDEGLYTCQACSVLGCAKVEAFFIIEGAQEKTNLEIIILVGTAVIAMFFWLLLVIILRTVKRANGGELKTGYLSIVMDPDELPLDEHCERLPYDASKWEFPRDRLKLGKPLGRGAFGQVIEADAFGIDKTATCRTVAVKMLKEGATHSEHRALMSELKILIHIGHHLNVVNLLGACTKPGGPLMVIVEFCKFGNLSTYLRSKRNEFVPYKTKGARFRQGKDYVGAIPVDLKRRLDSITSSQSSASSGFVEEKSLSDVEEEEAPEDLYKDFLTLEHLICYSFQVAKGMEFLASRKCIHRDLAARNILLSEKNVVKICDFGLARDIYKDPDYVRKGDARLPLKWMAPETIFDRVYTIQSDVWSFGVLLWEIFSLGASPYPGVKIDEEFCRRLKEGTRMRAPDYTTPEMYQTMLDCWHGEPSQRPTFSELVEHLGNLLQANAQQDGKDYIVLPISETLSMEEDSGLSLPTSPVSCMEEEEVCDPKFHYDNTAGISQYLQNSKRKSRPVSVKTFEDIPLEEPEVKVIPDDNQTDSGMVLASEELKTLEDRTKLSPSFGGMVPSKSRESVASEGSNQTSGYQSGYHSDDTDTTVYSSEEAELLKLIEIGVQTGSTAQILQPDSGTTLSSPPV
# [4] = tested on: T-cell; test: Inhibition of anti-CD3/CD28-induced IL2 production in human T cells; type: functional, cell-based
# [5] = tested on: Lymphocyte; test: Inhibition of T cell activation in human peripheral blood lymphocytes by mixed lymphocyte reaction; type: functional, cell-based
# [6] = Solubility in simulated intestinal fluid at pH 6.8; type: physicochemical
# [7] = target: Tyrosine-protein kinase Lck (Homo sapiens, UniProt P06239)
# Tyrosine-protein kinase Lck, sequence (P06239 whole entry): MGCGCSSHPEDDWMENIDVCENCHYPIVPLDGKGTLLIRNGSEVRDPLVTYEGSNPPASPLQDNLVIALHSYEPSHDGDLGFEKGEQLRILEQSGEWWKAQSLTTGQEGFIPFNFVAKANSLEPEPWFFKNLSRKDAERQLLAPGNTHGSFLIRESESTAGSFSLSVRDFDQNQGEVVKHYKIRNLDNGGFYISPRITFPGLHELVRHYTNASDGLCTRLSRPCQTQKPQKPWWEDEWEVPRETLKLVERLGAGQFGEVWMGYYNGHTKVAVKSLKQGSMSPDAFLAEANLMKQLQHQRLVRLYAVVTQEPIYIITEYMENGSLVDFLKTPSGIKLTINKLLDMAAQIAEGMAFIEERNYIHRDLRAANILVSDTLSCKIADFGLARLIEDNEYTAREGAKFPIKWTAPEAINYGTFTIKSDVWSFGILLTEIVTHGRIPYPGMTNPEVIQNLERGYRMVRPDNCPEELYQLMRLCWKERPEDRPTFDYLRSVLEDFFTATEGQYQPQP
# Description: Inhibition of Lck by HTRF assay
# [8] = tested on: Rattus norvegicus; test: Antiinflammatory activity against collagen-induced arthritis in Lewis rat assessed as reduction of paw swelling at 3 mg/kg, po qd for 7 days relative to control; type: functional; parameters: scale not given: the % may be the effect or the level left
# [9] = tested on: Rattus norvegicus; test: Antiinflammatory activity against collagen-induced arthritis in Lewis rat assessed as reduction of paw swelling at 10 mg/kg, po qd for 7 days relative to control; type: functional; parameters: scale not given: the % may be the effect or the level left
# [10] = tested on: Rattus norvegicus; test: Antiinflammatory activity against collagen-induced arthritis in po dosed Lewis rat assessed as reduction of paw swelling; type: functional
# [11] = target: Tyrosine-protein kinase Lyn (Homo sapiens, UniProt P07948); test: Inhibition of Lyn by HTRF assay
# [12] = target: Tyrosine-protein kinase SYK (Homo sapiens, UniProt P43405); test: Inhibition of Syk by HTRF assay
# [13] = target: Tyrosine-protein kinase ZAP-70 (Homo sapiens, UniProt P43403); test: Inhibition of ZAP-70 by HTRF assay
# [14] = target: Tyrosine-protein kinase JAK3 (Homo sapiens, UniProt P52333); test: Inhibition of JAK3 by HTRF assay
# Tyrosine-protein kinase JAK3, sequence (P52333 whole entry): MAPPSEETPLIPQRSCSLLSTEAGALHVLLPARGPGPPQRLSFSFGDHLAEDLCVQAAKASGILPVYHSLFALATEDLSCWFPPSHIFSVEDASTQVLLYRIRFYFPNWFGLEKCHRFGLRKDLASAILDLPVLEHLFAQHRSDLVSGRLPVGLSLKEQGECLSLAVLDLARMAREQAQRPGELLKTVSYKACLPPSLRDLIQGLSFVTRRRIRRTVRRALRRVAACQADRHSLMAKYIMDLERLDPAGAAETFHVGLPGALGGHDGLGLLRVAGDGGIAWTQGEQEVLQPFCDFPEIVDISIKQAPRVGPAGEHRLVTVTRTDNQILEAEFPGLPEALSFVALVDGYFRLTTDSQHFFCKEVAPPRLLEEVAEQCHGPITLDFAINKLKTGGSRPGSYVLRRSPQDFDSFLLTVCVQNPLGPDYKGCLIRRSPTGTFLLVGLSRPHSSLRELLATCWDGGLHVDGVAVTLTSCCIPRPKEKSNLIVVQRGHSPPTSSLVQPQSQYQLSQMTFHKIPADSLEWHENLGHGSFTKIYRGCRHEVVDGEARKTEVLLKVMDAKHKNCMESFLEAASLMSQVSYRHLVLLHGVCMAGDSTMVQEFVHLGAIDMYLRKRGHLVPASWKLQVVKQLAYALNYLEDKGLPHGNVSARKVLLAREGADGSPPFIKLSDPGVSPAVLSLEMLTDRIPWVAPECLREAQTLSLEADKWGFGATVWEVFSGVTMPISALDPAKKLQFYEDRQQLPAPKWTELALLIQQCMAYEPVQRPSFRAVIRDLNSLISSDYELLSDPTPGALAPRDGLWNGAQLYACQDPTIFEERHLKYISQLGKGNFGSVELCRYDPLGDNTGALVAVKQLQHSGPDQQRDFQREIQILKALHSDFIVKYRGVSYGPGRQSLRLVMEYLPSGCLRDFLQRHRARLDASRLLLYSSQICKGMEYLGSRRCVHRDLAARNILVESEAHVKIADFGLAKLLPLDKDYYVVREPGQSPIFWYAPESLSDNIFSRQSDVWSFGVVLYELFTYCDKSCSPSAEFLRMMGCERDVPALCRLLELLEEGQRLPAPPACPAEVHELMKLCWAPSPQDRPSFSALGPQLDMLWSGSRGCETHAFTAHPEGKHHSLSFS
# [15] = target: Tyrosine-protein kinase ITK/TSK (Homo sapiens, UniProt Q08881); test: Inhibition of Itk by HTRF assay
# [16] = target: Tyrosine-protein kinase BTK (Homo sapiens, UniProt Q06187); test: Inhibition of Btk by HTRF assay
# [17] = target: Angiopoietin-1 receptor (Homo sapiens, UniProt Q02763); test: Inhibition of Tie-2 by HTRF assay
# [18] = target: Mast/stem cell growth factor receptor Kit (Homo sapiens, UniProt P10721); test: Inhibition of c-Kit by HTRF assay
# [19] = target: Serine/threonine-protein kinase B-raf (Homo sapiens, UniProt P15056); test: Inhibition of b-Raf by HTRF assay
# Serine/threonine-protein kinase B-raf, sequence (P15056 whole entry): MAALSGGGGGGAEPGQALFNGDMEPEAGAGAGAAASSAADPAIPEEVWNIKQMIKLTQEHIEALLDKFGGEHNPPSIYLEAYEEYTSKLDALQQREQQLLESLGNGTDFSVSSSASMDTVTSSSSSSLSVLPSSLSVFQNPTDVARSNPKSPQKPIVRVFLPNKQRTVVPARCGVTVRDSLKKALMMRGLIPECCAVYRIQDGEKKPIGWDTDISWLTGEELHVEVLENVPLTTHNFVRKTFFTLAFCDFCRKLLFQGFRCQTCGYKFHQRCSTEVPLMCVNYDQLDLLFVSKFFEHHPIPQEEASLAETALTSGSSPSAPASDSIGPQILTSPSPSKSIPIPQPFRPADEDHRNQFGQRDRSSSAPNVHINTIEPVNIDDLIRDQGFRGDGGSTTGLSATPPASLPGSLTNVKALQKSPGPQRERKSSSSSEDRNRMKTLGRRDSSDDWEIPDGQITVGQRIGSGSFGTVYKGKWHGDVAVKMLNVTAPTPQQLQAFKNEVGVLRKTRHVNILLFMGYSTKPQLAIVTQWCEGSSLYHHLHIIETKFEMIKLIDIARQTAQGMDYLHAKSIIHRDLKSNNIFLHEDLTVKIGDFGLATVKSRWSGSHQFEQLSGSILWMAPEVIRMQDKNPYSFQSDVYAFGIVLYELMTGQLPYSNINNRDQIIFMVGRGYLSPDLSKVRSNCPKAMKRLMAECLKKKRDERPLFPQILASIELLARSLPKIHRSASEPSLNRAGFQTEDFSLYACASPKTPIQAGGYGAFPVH
# [20] = target: Mitogen-activated protein kinase 9 (Homo sapiens, UniProt P45984); test: Inhibition of JNK2 by HTRF assay
# Mitogen-activated protein kinase 9, sequence (P45984 whole entry): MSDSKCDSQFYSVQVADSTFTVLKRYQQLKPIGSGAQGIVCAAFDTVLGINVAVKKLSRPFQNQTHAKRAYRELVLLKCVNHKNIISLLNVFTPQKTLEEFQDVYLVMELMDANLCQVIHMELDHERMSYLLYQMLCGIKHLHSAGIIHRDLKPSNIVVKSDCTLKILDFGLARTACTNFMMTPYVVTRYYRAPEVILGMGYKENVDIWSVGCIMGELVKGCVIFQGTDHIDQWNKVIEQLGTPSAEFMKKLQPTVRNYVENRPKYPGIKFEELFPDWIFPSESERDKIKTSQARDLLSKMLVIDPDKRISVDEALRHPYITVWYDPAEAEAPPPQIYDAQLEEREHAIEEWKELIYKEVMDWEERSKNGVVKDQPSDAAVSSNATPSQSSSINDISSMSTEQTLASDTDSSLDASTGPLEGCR
# [21] = target: Mitogen-activated protein kinase 10 (Homo sapiens, UniProt P53779); test: Inhibition of JNK3 by HTRF assay
# [22] = target: Mitogen-activated protein kinase 3 (Homo sapiens, UniProt P27361); test: Inhibition of Erk1 by HTRF assay
# [23] = target: Ribosomal protein S6 kinase alpha-5 (Homo sapiens, UniProt O75582); test: Inhibition of MSK1 by HTRF assay
# [24] = Inhibition of anti-CD3/CD28-induced human T cell proliferation
# [25] = tested on: T-cell; test: Inhibition of anti-CD3/CD28-induced IL2 secretion in human T cells stimulated with phorbol myristic acid and calcium ionophore
# [26] = tested on: Jurkat; test: Cytotoxicity against human Jurkat T cells assessed as cell viability after 72 hrs
# [27] = AUC (0 to infinity) in Sprague-Dawley rat at 2 mg/kg, iv; type: ADME, organism-based; parameters: time infinity, dose 2 mg/kg, route intravenous; settings: plasma
# [28] = Clearance in Sprague-Dawley rat at 2 mg/kg, iv; type: ADME, organism-based; parameters: dose 2 mg/kg, route intravenous; settings: in vivo
# [29] = Volume of distribution at steady state in Sprague-Dawley rat at 2 mg/kg, iv; type: ADME, organism-based; parameters: dose 2 mg/kg, route intravenous; settings: in vivo, read-out: Vdss
# [30] = Cmax in Sprague-Dawley rat at 5 mg/kg, po; type: ADME, organism-based; parameters: dose 5 mg/kg, route oral; settings: in vivo
# [31] = Tmax in Sprague-Dawley rat at 5 mg/kg, po; type: ADME, organism-based; parameters: dose 5 mg/kg, route oral; settings: in vivo
# [32] = AUC (0 to infinity) in Sprague-Dawley rat at 5 mg/kg, po; type: ADME, organism-based; parameters: time infinity, dose 5 mg/kg, route oral; settings: plasma
# [33] = Oral bioavailability in Sprague-Dawley rat at 5 mg/kg; type: ADME, organism-based; settings: in vivo
# [34] = tested on: Mus musculus; test: Inhibition of anti-CD3-induced IL2 production in BALB/c mouse serum at 3 mg/kg, po by ELISA relative to control; type: functional
# [35] = tested on: Mus musculus; test: Inhibition of anti-CD3-induced IL2 production in BALB/c mouse serum at 10 mg/kg, po by ELISA relative to control; type: functional
# [36] = tested on: Mus musculus; test: Inhibition of anti-CD3-induced IL2 production in BALB/c mouse serum at 30 mg/kg, po by ELISA relative to control; type: functional
# [37] = species: Mus musculus; test: Inhibition of anti-CD3-induced IL2 production in BALB/c mouse serum by ELISA; type: functional
# [38] = tested on: Rattus norvegicus; test: Inhibition of Mycobacterium tuberculosis H37Ra-induced arthritis in Lewis rat assessed as reduction of paw swelling at 10 mg/kg, po daily from day 9 to day 17 relative to control; type: functional
# [39] = tested on: Rattus norvegicus; test: Inhibition of Mycobacterium tuberculosis H37Ra-induced arthritis in Lewis rat assessed as reduction of paw swelling at 20 mg/kg, po daily from day 9 to day 17 relative to control; type: functional
# [40] = tested on: Rattus norvegicus; test: Inhibition of Mycobacterium tuberculosis H37Ra-induced arthritis in Lewis rat assessed as reduction of paw swelling at 60 mg/kg, po daily from day 9 to day 17 relative to control; type: functional
# [41] = tested on: Rattus norvegicus; test: Inhibition of Mycobacterium tuberculosis H37Ra-induced arthritis in po dosed Lewis rat assessed as reduction of paw swelling; type: functional
# [42] = AUC in Mycobacterium tuberculosis H37Ra-induced arthritis Lewis rat; type: ADME, organism-based; settings: plasma
# [43] = Cmax in Mycobacterium tuberculosis H37Ra-induced arthritis Lewis rat; type: ADME, organism-based; settings: in vivo
# [44] = tested on: Rattus norvegicus; test: Antiinflammatory activity against collagen-induced arthritis in Lewis rat assessed as reduction of paw swelling at 0.3 mg/kg, po qd for 7 days relative to control; type: functional; parameters: scale not given: the % may be the effect or the level left
# [45] = tested on: Rattus norvegicus; test: Antiinflammatory activity against collagen-induced arthritis in Lewis rat assessed as reduction of paw swelling at 1 mg/kg, po qd for 7 days relative to control; type: functional; parameters: scale not given: the % may be the effect or the level left
# [46] = AUC in collagen-induced arthritis Lewis rat; type: ADME, organism-based; settings: plasma
# [47] = Cmax in collagen-induced arthritis Lewis rat; type: ADME, organism-based; settings: in vivo
# [48] = Half life in Sprague-Dawley rat at 2 mg/kg, iv; type: ADME, organism-based; parameters: dose 2 mg/kg, route intravenous; settings: in vivo
# Proto-oncogene tyrosine-protein kinase Src, sequence (P12931 2-536 limits assumed): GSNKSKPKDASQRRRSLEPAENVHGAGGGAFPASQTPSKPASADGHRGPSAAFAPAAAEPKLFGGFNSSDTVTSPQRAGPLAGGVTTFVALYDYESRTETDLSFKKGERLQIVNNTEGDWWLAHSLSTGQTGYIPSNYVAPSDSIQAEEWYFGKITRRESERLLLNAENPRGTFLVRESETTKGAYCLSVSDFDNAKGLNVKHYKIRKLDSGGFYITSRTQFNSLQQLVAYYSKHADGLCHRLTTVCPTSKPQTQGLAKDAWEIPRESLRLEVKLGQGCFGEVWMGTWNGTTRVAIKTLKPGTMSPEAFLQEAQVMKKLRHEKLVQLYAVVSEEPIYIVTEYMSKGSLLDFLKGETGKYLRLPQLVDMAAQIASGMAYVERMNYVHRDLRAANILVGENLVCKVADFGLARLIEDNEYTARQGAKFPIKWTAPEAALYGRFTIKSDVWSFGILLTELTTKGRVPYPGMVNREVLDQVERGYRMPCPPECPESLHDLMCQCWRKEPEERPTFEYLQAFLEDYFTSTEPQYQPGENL
smiles,measurement,setting,value
COc1cc(Nc2ncc3c(=O)n(-c4c(C)cccc4C)c4nc5ccccc5n4c3n2)cc(OC)c1OC,IC50,[1],210 nM
same,IC50,[2],> 10000 nM
same,IC50,[3],1900 nM
same,IC50,[4],970 nM
same,IC50,[5],470 nM
same,solubility,[6],15 µg/mL
same,IC50,[7],27 nM
COc1cc(Nc2ncc3c(=O)n(-c4c(C)cccc4C)c4nc5ccccc5n4c3n2)ccc1N1CCN(C)CC1,IC50,[1],100 nM
same,IC50,[2],7500 nM
same,IC50,[3],3600 nM
same,IC50,[4],430 nM
same,IC50,[5],51 nM
same,solubility,[6],> 200 µg/mL
same,IC50,[7],5 nM
COc1cc(Nc2ncnc(-n3c(Nc4c(C)cccc4C)nc4ccccc43)n2)cc(OC)c1OC,IC50,[2],78 nM
same,IC50,[3],4 nM
same,IC50,[7],1 nM
Cc1cccc(C)c1-n1c(=O)c2cnc(Nc3ccc(N4CCN(C)CC4)cc3)nc2n2c3ccccc3nc12,Activity,[8],49%
same,Activity,[9],95%
same,ED50,[10],3.2 mg/kg
same,IC50,[2],> 10000 nM
same,IC50,[3],5100 nM
same,IC50,[4],460 nM
same,IC50,[5],47 nM
same,solubility,[6],153 µg/mL
same,IC50,[11],21 nM
same,IC50,[12],200 nM
same,IC50,[13],1500 nM
same,IC50,[14],150 nM
same,IC50,[15],> 20000 nM
same,IC50,[16],410 nM
same,IC50,[17],750 nM
same,IC50,[18],560 nM
same,IC50,[19],540 nM
same,IC50,[20],> 40000 nM
same,IC50,[21],7300 nM
same,IC50,[22],> 100000 nM
same,IC50,[23],> 100000 nM
same,IC50,[24],530 nM
same,IC50,[25],5800 nM
same,IC50,[26],490 nM
same,AUC(0-inf),[27],1150 ng·h/mL
same,clearance,[28],30 mL/min/kg
same,Vd,[29],7.5 L/kg
same,Cmax,[30],82 ng/mL
same,Tmax,[31],3 h
same,AUC(0-inf),[32],862 ng·h/mL
same,bioavailability,[33],17%
same,inhibition in vivo at 3 mg/kg,[34],15%
same,inhibition in vivo at 10 mg/kg,[35],28%
same,inhibition in vivo at 30 mg/kg,[36],56%
same,ED50,[37],26 mg/kg
same,inhibition in vivo at 10 mg/kg,[38],17%
same,inhibition in vivo at 20 mg/kg,[39],64%
same,inhibition in vivo at 60 mg/kg,[40],90%
same,ED50,[41],24 mg/kg
same,AUC,[42],2.7 µM·h
same,Cmax,[43],700 nM
same,Activity,[44],15%
same,Activity,[45],21%
same,AUC,[46],3.3 µM·h
same,Cmax,[47],500 nM
same,half-life,[48],3.12 h
COc1cc(Nc2ncc3c(=O)n(-c4c(C)cccc4C)c4nc5ccccc5n4c3n2)cc(OC)c1OCCN1CCOCC1,IC50,[1],44 nM
same,IC50,[2],> 10000 nM
same,IC50,[3],1700 nM
same,IC50,[4],360 nM
same,IC50,[5],180 nM
same,solubility,[6],18 µg/mL
same,IC50,[7],10 nM
COc1ccc(Cl)cc1-n1c(=O)c2cnc(Nc3ccc(N4CCN(C)CC4)cc3)nc2n2c3ccccc3nc12,IC50,[1],1400 nM
same,IC50,[3],> 25000 nM
same,IC50,[5],1000 nM
same,IC50,[7],23 nM
COc1cc(Nc2ncc3c(=O)n(-c4c(C)cccc4C)c4nc5ccccc5n4c3n2)ccc1OCCN1CCN(C)CC1,IC50,[1],240 nM
same,IC50,[2],> 10000 nM
same,IC50,[3],5500 nM
same,IC50,[4],16000 nM
same,IC50,[5],150 nM
same,IC50,[7],19 nM
Cc1ccc(-n2c(=O)c3cnc(Nc4ccc(N5CCN(C)CC5)cc4)nc3n3c4ccccc4nc23)cc1,IC50,[1],1700 nM
same,IC50,[3],> 25000 nM
same,IC50,[7],350 nM
COc1cccc(-n2c(=O)c3cnc(Nc4ccc(N5CCN(C)CC5)cc4)nc3n3c4ccccc4nc23)c1,IC50,[1],1900 nM
same,IC50,[3],8300 nM
same,IC50,[7],190 nM
Cc1cccc(C)c1-n1c(=O)c2cnc(Nc3ccc(OCCN(C)C)cc3)nc2n2c3ccccc3nc12,IC50,[1],440 nM
same,IC50,[2],> 10000 nM
same,IC50,[3],6600 nM
same,IC50,[5],84 nM
same,IC50,[7],28 nM
CN1CCN(c2ccc(Nc3ncc4c(=O)n(-c5c(Cl)cc(Cl)cc5Cl)c5nc6ccccc6n5c4n3)cc2)CC1,IC50,[1],35 nM
same,IC50,[2],> 10000 nM
same,IC50,[3],480 nM
same,IC50,[5],140 nM
same,IC50,[7],8 nM
